These results are taken from paper PMC4511477 (Biochemistry, 2015).

One series deals with T1, GltPh (Pyrococcus horikoshii, UniProt O59010).
T1 sequence (O59010 1-417 limits assumed): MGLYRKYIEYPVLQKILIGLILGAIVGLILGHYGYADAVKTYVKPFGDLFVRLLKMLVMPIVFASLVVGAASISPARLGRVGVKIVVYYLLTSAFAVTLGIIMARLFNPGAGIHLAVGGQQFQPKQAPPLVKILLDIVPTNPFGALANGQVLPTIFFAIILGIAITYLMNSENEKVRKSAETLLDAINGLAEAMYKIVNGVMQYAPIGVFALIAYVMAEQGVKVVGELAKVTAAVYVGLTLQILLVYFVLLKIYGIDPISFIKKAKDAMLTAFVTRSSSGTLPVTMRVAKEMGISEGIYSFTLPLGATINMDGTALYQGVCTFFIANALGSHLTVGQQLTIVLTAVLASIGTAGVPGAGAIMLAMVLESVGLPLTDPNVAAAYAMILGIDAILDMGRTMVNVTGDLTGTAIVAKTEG
Put plainly: […]-Asp uptake into proteoliposomes. In kind it is biochemical. The settings on record: read-out: % inhibition at 10 μM.

A further series addresses T2, semisynthetic GltPh (Pyrococcus horikoshii, UniProt O59010, M385C).
T2 sequence (O59010 1-417 M385C limits assumed): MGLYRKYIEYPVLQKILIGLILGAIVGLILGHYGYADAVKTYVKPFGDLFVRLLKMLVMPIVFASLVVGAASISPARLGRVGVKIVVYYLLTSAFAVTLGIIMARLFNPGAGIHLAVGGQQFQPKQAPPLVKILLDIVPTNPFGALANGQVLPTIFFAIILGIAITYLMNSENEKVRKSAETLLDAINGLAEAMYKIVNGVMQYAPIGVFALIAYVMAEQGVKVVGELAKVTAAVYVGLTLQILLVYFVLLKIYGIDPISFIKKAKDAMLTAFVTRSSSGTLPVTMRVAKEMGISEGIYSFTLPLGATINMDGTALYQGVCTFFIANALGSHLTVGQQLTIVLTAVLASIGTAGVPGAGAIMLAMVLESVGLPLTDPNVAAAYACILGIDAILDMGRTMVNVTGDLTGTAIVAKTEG
Put plainly: […]-Asp uptake into proteoliposomes. The settings on record: read-out: % inhibition at 10 μM. In kind it is biochemical.

The series “cross-linking” deals with the molecule itself. Put plainly: cross-linking.

Consider `NC(C(=O)O)C(OCc1ccccc1)C(=O)O` (racemic) [TBOA], for which the values for the inhibition at 10 µM at GltPh and at semisynthetic GltPh were 31 ± 10% and 42 ± 4%, respectively.

B1: semisynthetic GltPh transporter (wild type sequence, M385C at the ligation site) (natural protein, Pyrococcus horikoshii)
chain: MGLYRKYIEYPVLQKILIGLILGAIVGLILGHYGYADAVKTYVKPFGDLFVRLLKMLVMPIVFASLVVGAASISPARLGRVGVKIVVYYLLTSAFAVTLGIIMARLFNPGAGIHLAVGGQQFQPKQAPPLVKILLDIVPTNPFGALANGQVLPTIFFAIILGIAITYLMNSENEKVRKSAETLLDAINGLAEAMYKIVNGVMQYAPIGVFALIAYVMAEQGVKVVGELAKVTAAVYVGLTLQILLVYFVLLKIYGIDPISFIKKAKDAMLTAFVTRSSSGTLPVTMRVAKEMGISEGIYSFTLPLGATINMDGTALYQGVCTFFIANALGSHLTVGQQLTIVLTAVLASIGTAGVPGAGAIMLAMVLESVGLPLTDPNVAAAYACILGIDAILDMGRTMVNVTGDLTGTAIVAKTEGTGSG
As to B1, the stoichiometry N (in general, the number of molecules, sites or subunits per partner or assembly) in “cross-linking” is 3.
